The values below come from patent publication US7276519B2, “Thieno[3,2-b]pyridine-6-carbonitriles and thieno[2,3-b]pyridine-5-carbonitriles as protein kinase inhibitors” (Wyeth, priority 2002, dated 2007).

Values joined by “and” are separate entries in the source; they are usually repeats but may differ in a detail not shown here. Equal entries are not always repeated. Where two headings read alike, the source gives them in different places.

Data set [1] concerns the target T1, Rat2 fibroblasts stably transformed with v-Src/Hu Lck fusion gene (Homo sapiens, UniProt P06239, cells depend on it, form not given).
T1 construct: Candidates are e.g. Schmidt-Ruppin A (P00524) or Prague C (P00526); The human Lck catalytic domain stands in place of the v-Src catalytic domain
Briefly: Anchorage independent Lck-transformed fibroblast proliferation assay. Format: cell-based, rat. The protocol:
Anchorage Independent Lck-Transformed Fibroblast Proliferation Assay
Rat2 fibroblasts stably transformed with a plasmid containing a CMV promotor controlled v-Src/Hu Lck fusion gene in which the catalytic domain of human Lck was inserted in place of the v-Src catalytic domain in the v-Src gene are used for the measurement of src dependent suspension growth. Ultra-low cluster plates (Costar # 3474) are seeded with 10,000 cells per well on Day 1. Compound is added in serial two-fold dilutions from 10 micromolar to 0.009 micromolar on Day 2 and MTS reagent (Promega) is added on Day 5 (100 microliters of MTS/medium mix+100 microliters of medium already on the cells and the absorbance is measured at 490 nm. The results are analyzed as follows to yield an IC50 for proliferation (micromolar units) as follow: % inhibition=(Abs490 nm sample−blank)/(Abs490 nm no cmpd control−blank)×100%. The results obtained for representative compounds of this invention are listed in Table 2. Multiple entries for a given compound indicate that it was tested multiple times.

In data set [2] the test system is Rat2 fibroblasts stably transformed with v-Src/Hu c-Src fusion gene. Put plainly: Anchorage independent Src-transformed fibroblast proliferation assay. It is filed as cell-based, rat. The method, then: Anchorage Independent Src-Transformed Fibroblast Proliferation Assay Rat2 fibroblasts stably transformed with a plasmid containing a CMV promotor controlled v-Src/Hu c-Src fusion gene in which the catalytic domain of human c-Src was inserted in place of the v-Src catalytic domain in the v-Src gene are used for the measurement of src dependent suspension growth. […] Multiple entries for a given compound indicate that it was tested multiple times.

Setting [3] is: Table 3, read-out: Lck Cells IC50.
[4] abbreviates: Table 2, suspension growth, MTS readout Day 5, read-out: Lck cells IC50.
[5] abbreviates: Rattus norvegicus, Rat2, Table 3, read-out: Src Cells IC50 μM or % inhib at 10 μM (IC50 values).
Setting [6] is: Table 3, read-out: Src Cells IC50 μM or % inhib at 10 μM (IC50 values).
Where [7] appears, read: Rattus norvegicus, Rat2, 120 h, Table 1, suspension growth, MTS readout Day 5, read-out: Src cells IC50.

T1 sequence (P06239 whole entry, change not shown, the tested form may be a part): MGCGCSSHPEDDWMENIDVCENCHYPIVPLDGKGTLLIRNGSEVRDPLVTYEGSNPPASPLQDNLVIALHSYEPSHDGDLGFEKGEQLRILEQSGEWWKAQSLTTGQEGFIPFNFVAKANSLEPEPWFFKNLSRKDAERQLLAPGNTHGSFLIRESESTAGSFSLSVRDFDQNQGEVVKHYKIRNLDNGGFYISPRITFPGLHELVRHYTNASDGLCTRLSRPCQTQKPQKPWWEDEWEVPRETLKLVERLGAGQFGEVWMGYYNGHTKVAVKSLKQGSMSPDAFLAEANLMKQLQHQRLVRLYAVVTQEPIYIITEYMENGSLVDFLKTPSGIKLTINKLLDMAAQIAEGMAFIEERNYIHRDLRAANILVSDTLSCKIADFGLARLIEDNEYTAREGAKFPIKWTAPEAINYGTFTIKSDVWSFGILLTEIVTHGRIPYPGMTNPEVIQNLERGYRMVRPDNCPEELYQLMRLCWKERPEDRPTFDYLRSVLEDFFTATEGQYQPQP

Turning to `COc1cc(Nc2c(C#N)cnc3cc(-c4ccc(CN5CCN(c6ccccc6OC)CC5)cc4)sc23)c(Cl)cc1Cl` [Example 120, 7-[(2,4-dichloro-5-methoxyphenyl)amino]-2-(4-{[4-(2-methoxyphenyl)piperazin-1-yl]methyl}phenyl)thieno[3,2-b]pyridine-6-carbonitrile], the melting point (usually the temperature of the solid-liquid transition) lay within 176 to 179 °C. Besides, the GI50 in data set [1] (setting [3]) was 8900 nM and > 10000 nM.
As for `COc1cc(Nc2c(C#N)cnc3cc(-c4ccc(CN5CCN(c6ccccc6)CC5)cc4)sc23)c(Cl)cc1Cl` [Example 113, 7-[(2,4-dichloro-5-methoxyphenyl)amino]-2-{4-[(4-phenylpiperazin-1-yl)methyl]phenyl}thieno[3,2-b]pyridine-6-carbonitrile], the melting point is 238 to 240 °C. Also, the GI50 in data set [1] (setting [3]) is more than 10000 nM.
`COc1cc(Nc2c(C#N)cnc3cc(-c4ccc(CN5CCOCC5)cc4)sc23)c(Cl)cc1Cl` [Example 15, 7-[(2,4-Dichloro-5-methoxyphenyl)amino]-2-[4-(4-morpholinylmethyl)phenyl]thieno[3,2-b]pyridine-6-carbonitrile] registered a melting point of 244 to 245 °C. Moreover, in data set [1] (setting [4]), the GI50 worked out at 350 nM.
With `COc1cc(Nc2c(C#N)cnc3cc(-c4coc(CN5CCN(C)CC5)c4)sc23)c(Cl)cc1Cl` [Example 137, 7-[(2,4-dichloro-5-methoxyphenyl)amino]-2-{5-[(4-methylpiperazin-1-yl)methyl]-3-furyl}thieno[3,2-b]pyridine-6-carbonitrile], the melting point lay in the range of 189 to 192 °C. Further, the GI50 in data set [1] (setting [3]) is 67 nM and 53 nM. Further, the IC50 (as a rule, the midpoint of a concentration-inhibition curve) in data set [2] (setting [5]) was 0.303 µM. In data set [2] (setting [6]), the IC50 is 0.211 µM.
Molecule `COc1cc(Nc2c(C#N)cnc3cc(-c4csc(CN5CCN(C)CC5)c4)sc23)c(Cl)cc1Cl` [Example 38, 7-[(2,4-Dichloro-5-methoxyphenyl)amino]-2-{5-[(4-methylpiperazin-1-yl)methyl]thien-3-yl}thieno[3,2-b]pyridine-6-carbonitrile] registered a melting point of 224 to 226 °C. In addition, the GI50 in data set [1] (setting [4]) was 170 nM and 180 nM and 130 nM.
`COc1cc(Nc2c(C#N)cnc3cc(-c4ccc(CN(C)C)o4)sc23)c(Cl)cc1Cl` [Example 76, 7-[(2,4-dichloro-5-methoxyphenyl)amino]-2-{5-[(dimethylamino)methyl]-2-furyl}thieno[3,2-b]pyridine-6-carbonitrile] displayed a melting point of 200 to 202 °C. For the same molecule, the GI50 in data set [1] (setting [3]) was 910 nM and 990 nM. Further, the concentration for half-maximal inhibition (IC50) in data set [2] (setting [5]) came to 4.9 µM. The IC50 in data set [2] (setting [6]) amounted to 2.6 µM.
As to `COc1cc(Nc2c(C#N)cnc3cc(-c4ccc(CN5CCN(C)CC5)s4)sc23)c(Cl)cc1Cl` [Example 81, 7-[(2,4-dichloro-5-methoxyphenyl)amino]-2-{5-[(4-methylpiperazin-1-yl)methyl]thien-2-yl}thieno[3,2-b]pyridine-6-carbonitrile], the melting point lay in the range of 200 to 202 °C. In data set [1] (setting [3]), the GI50 was 180 nM and 220 nM.
`COc1cc(Nc2c(C#N)cnc3cc(-c4ccc(C(=O)N(C)C)cc4)sc23)c(Cl)cc1Cl` [Example 136, 4-{6-cyano-7-[(2,4-dichloro-5-methoxyphenyl)amino]thieno[3,2-b]pyridin-2-yl}-N,N-dimethylbenzamide]: the melting point was 246 to 249 °C. The GI50 in data set [1] (setting [3]) is 463 nM and 331 nM and 341 nM.
As to `COc1cc(Nc2c(C#N)cnc3cc(/C=C/c4ccccc4)sc23)c(Cl)cc1Cl` [Example 64, 7-[(2,4-Dichloro-5-methoxyphenyl)amino]-2-[(E)-2-phenylvinyl]thieno[3,2-b]pyridine-6-carbonitrile], the melting point was 236 to 238 °C. Moreover, the GI50 in data set [1] (setting [3]) is 7400 nM and 7900 nM. In addition, the IC50 in data set [2] (setting [5]) was 6.4 µM. Also, the IC50 in data set [2] (setting [6]) came out at 5.6 µM.
`COc1cc(Nc2c(C#N)cnc3cc(-c4cccc(CN5CCN(C)CC5)c4)sc23)c(Cl)cc1Cl` [Example 74, 7-[(2,4-dichloro-5-methoxyphenyl)amino]-2-{3-[(4-methylpiperazin-1-yl)methyl]phenyl}thieno[3,2-b]pyridine-6-carbonitrile]: the melting point was in the range of 178 to 180 °C. In data set [1] (setting [3]), the GI50 was 600 nM and 510 nM.
In turn, `COc1cc(Nc2c(C#N)cnc3cc(-c4ccc(CN(C)C)cc4)sc23)c(Cl)cc1Cl` [Example 62, 7-[(2,4-Dichloro-5-methoxyphenyl)amino]-2-{4-[(dimethylamino)methyl]phenyl}thieno[3,2-b]pyridine-6-carbonitrile] showed a melting point of 224 to 225 °C. Moreover, the GI50 in data set [1] (setting [4]) was 79 nM.
Turning to `COc1cc(Nc2c(C#N)cnc3cc(-c4ccc(CNCCC(C)C)cc4)sc23)c(Cl)cc1Cl` [Example 121, 7-[(2,4-dichloro-5-methoxyphenyl)amino]-2-(4-{[(3-methylbutyl)amino]methyl}phenyl)thieno[3,2-b]pyridine-6-carbonitrile], the melting point is 195 to 197 °C. For the same molecule, the GI50 in data set [1] (setting [3]) is 525 nM and 576 nM and 951 nM.
With `COc1cc(Nc2c(C#N)cnc3c(-c4ccc(C=O)cc4)csc23)c(Cl)cc1Cl` [Example 140, 7-[(2,4-Dichloro-5-methoxyphenyl)amino]-3-(4-formylphenyl)thieno[3,2-b]pyridine-6-carbonitrile], the melting point was 268 °C (dec.). For the same molecule, in data set [1] (setting [3]), the GI50 was more than 10000 nM. The IC50 in data set [2] (setting [5]) stood at 8.46 µM. In addition, in data set [2] (setting [6]), the half-inhibitory concentration (IC50) is 8.58 µM.
As for `COc1cc(Nc2c(C#N)cnc3cc(C#Cc4ccc(CN(C)C)cn4)sc23)c(Cl)cc1Cl` [Example 100, 7-[(2,4-dichloro-5-methoxyphenyl)amino]-2-({5-[(dimethylamino)methyl]pyridin-2-yl}ethynyl)thieno[3,2-b]pyridine-6-carbonitrile], the melting point lay in the range of 215 to 217 °C. The GI50 in data set [1] (setting [3]) is 3340 nM and 1930 nM. For the same molecule, the half-inhibitory concentration (IC50) in data set [2] (setting [5]) was more than 10 µM.
`COc1cc(Nc2c(C#N)cnc3cc(-c4csc(CN5CCOCC5)c4)sc23)c(Cl)cc1Cl` [Example 39, 7-[(2,4-Dichloro-5-methoxyphenyl)amino]-2-[5-(morpholin-4-ylmethyl)thien-3-yl]thieno[3,2-b]pyridine-6-carbonitrile] had a melting point of 209 to 212 °C. For the same molecule, the GI50 in data set [1] (setting [4]) was found to be 680 nM. For the same molecule, the concentration for half-maximal inhibition (IC50) in data set [2] (setting [7]) stood at 0.85 µM.
`COc1cc(Nc2c(C#N)cnc3cc(-c4ccc(CN(C)C)s4)sc23)c(Cl)cc1Cl` [Example 88, 7-[(2,4-dichloro-5-methoxyphenyl)amino]-2-{5-[(dimethylamino)methyl]thien-2-yl}thieno[3,2-b]pyridine-6-carbonitrile] had a melting point of 210 to 212 °C. Moreover, in data set [1] (setting [3]), the GI50 was 160 nM and 250 nM. The half-inhibitory concentration (IC50) in data set [2] (setting [5]) was 2.4 µM. Also, in data set [2] (setting [6]), the 50% inhibitory concentration (IC50) stood at 2.3 µM.
In the case of `COc1cc(Nc2c(C#N)cnc3cc(-c4ccc(CN5CCN(C)CC5)cc4)sc23)cc(OC)c1OC` [Example 58, 2-{4-[(4-Methylpiperazin-1-yl)methyl]phenyl}-7-[(3,4,5-trimethoxyphenyl)amino]thieno[3,2-b]pyridine-6-carbonitrile], the melting point was 189 to 191 °C. The GI50 in data set [1] (setting [4]) was determined as 48 nM. Also, in data set [2] (setting [7]), the IC50 amounted to 0.165 µM. In data set [2] (Table 1, suspension growth, MTS readout Day 5, read-out: Src cells IC50), the IC50 came out at 0.245 µM.
`COc1cc(Nc2c(C#N)cnc3cc(C#Cc4cccc(CN(C)C)n4)sc23)c(Cl)cc1Cl` [Example 87, 7-[(2,4-dichloro-5-methoxyphenyl)amino]-2-({6-[(dimethylamino)methyl]pyridin-2-yl}ethynyl)thieno[3,2-b]pyridine-6-carbonitrile] registered a melting point of 190 to 191 °C. Besides, in data set [1] (setting [3]), the GI50 was 1000 nM and 1850 nM.
In turn, `CN1CCN(Cc2ccc(-c3cc4ncc(C#N)c(Nc5ccc(Cl)cc5Cl)c4s3)cc2)CC1` [Example 119, 7-[(2,4-dichlorophenyl)amino]-2-{4-[(4-methylpiperazin-1-yl)methyl]phenyl}thieno[3,2-b]pyridine-6-carbonitrile] had a melting point of 245 to 247 °C. Further, the GI50 in data set [1] (setting [3]) is 1220 nM and 1340 nM.
Turning to `COc1cc(Nc2c(C#N)cnc3cc(-c4cnn(CCN5CCOCC5)c4)sc23)c(Cl)cc1Cl` [Example 131, 7-[(2,4-dichloro-5-methoxyphenyl)amino]-2-[1-(2-morpholin-4-ylethyl)-1H-pyrazol-4-yl]thieno[3,2-b]pyridine-6-carbonitrile], in data set [1] (setting [3]), the GI50 is more than 10000 nM. Moreover, the inhibition at 10 µM in data set [2] (Rattus norvegicus, Rat2, Table 3, at 10 μM, read-out: Src Cells IC50 μM or % inhib at 10 μM (% values)) turned out to be 16%. The “Src Cells IC50 μM or % inhib at 10 μM (% values)” value in data set [2] (Table 3, at 10 μM) was found to be 17%.
As for `COc1cc(Nc2c(C#N)cnc3cc(C#Cc4cnn(CCO)c4)sc23)c(Cl)cc1Cl` [Example 130, 7-[(2,4-dichloro-5-methoxyphenyl)amino]-2-{[1-(2-hydroxyethyl)-1H-pyrazol-4-yl]ethynyl}thieno[3,2-b]pyridine-6-carbonitrile], in data set [1] (setting [3]), the GI50 was 3640 nM and 4070 nM. The IC50 in data set [2] (setting [5]) is 5.59 µM; in data set [2] (setting [6]), 3.2 µM.
